Reference: patent US8697883B2, “Cyclopenta[C]pyrrole-2-carboxylate derivatives, preparation thereof and therapeutic use thereof” (Sanofi, priority 2009, dated 2014)

Key:
[1] = molecular target: T1, enzyme FAAH (Fatty Acid Amide Hydrolase) (Mus musculus, UniProt O08914); assay: FAAH radioenzymatic test, hydrolysis of anandamide [ethanolamine 1-3H] (protocol 1); format: biochemical; settings: mouse brain membrane homogenate, anandamide 10 μM, 20 min preincubation at 25° C., read-out: IC50 (concentration that inhibits 50% of the control enzymatic activity of FAAH)
T1 construct: The membrane homogenates are prepared extemporaneously by homogenizing the tissues; from tissue; host or cells: mouse brain minus cerebellum, membrane/brain homogenate
T1 sequence (O08914 1-579): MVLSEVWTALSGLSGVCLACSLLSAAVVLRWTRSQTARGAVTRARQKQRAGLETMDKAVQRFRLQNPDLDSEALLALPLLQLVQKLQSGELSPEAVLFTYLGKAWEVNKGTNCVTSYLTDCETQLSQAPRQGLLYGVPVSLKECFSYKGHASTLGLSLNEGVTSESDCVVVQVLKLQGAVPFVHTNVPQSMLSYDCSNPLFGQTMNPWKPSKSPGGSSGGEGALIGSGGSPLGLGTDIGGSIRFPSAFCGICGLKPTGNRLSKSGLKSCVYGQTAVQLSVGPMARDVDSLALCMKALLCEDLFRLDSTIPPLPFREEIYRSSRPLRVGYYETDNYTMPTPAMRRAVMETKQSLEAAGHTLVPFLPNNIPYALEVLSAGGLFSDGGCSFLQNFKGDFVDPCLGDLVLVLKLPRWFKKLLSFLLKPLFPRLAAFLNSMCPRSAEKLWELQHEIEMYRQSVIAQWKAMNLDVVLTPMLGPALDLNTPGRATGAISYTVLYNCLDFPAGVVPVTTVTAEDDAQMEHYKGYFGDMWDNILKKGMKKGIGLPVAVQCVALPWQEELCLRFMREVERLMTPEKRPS
Experimental: (§1) The compounds of the invention underwent pharmacological tests to determine their inhibitory effect on the enzyme FAAH (Fatty Acid Amide Hydrolase).
Thus, mouse brains (minus the cerebellum) are removed and stored at −80° C. The membrane homogenates are prepared extemporaneously by homogenizing the tissues using a Precellys® machine in reaction buffer (10 mM Tris-HCl, pH=8, 150 mM NaCl and 1 mM ethylenediaminetetraacetic acid (EDTA)). The enzymatic reaction is performed in 96-well Multiscreen filtration plates in a final volume of 70 μL. Reaction buffer supplemented with fatty acid-free bovine serum albumin (BSA, 1 mg/ml) is used for the enzymatic reaction and the dilution of the compounds and of the anandamide [ethanolamine 1-^3H]. The reaction buffer containing BSA (43 μL/well), the diluted test compounds at different concentrations (7 μL/well containing 1% DMSO) and the membrane preparation (10 μL/well, i.e. 200 μg of tissue per test) are successively added to the wells. After preincubation for 20 minutes of the compounds with the enzyme at 25° C., the reaction is started by adding anandamide [ethanolamine 1-^3H] (specific activity of 15-20 Ci/mmol) diluted with cold anandamide (10 μL/well, final concentration of 10 μM, 0.01 μCi per test). After incubation for 20 minutes at 25° C., the enzymatic reaction is stopped by adding a […] solution of active charcoal prepared in 1.5M NaCl buffer and 0.5 M HCl (50 μL/well). The mixture is stirred for 10 minutes and the aqueous phase containing the ethanolamine [1-^3H] is then recovered by filtration under vacuum and counted by liquid scintillation.

[2] = system: male OF1 mice; assay: Test of analgesia: PBQ-induced abdominal stretching; format: in vivo, mouse; settings: 30 mg/kg p.o. at 120 minutes
Experimental: The in vivo activity of the compounds of the invention was evaluated in a test of analgesia.
Thus, the intraperitoneal (i.p.) administration of PBQ (phenylbenzoquinone, 2 mg/kg in 0.9% sodium chloride solution containing 5% ethanol) to male OF1 mice weighing 25 to 30 g causes abdominal stretching, on average 30 torsions or contractions within a period of 5 to 15 minutes after injection. The test compounds are administered orally (p.o.) or intraperitoneally (i.p.) suspended in Tween 80 at 0.5%, 60 minutes or 120 minutes before the administration of PBQ. Under these conditions, the compounds of the invention that are the most powerful reduce by 35% to 80% the number of stretches induced with PBQ, over a dose range of between 1 and 30 mg/kg.

[3] = molecular target: T1, enzyme FAAH (Fatty Acid Amide Hydrolase); assay: FAAH fluorescent enzymatic test, hydrolysis of AAMC (protocol 2); format: biochemical; settings: mouse brain homogenate, AAMC 10 μM, 20 min preincubation at 25° C., 40 min at 37° C., read-out: IC50 (concentration that inhibits 50% of the control enzymatic activity of FAAH)
Experimental: as §1
Thus, mouse brains (minus the cerebellum) are withdrawn and stored at −80° C. The brain homogenates are prepared extemporaneously by homogenizing the tissues using a Precellys® machine in reaction buffer (10 mM Tris-HCl, pH=8, 150 mM NaCl and 1 mM ethylenediaminetetraacetic acid (EDTA)). The enzymatic reaction is performed in black polystyrene 384-well plates in a final volume of 50 μL. Reaction buffer supplemented with fatty acid-free bovine serum albumin (BSA, 1 mg/ml) is used for the enzymatic reaction, the dilution of the compounds and the dilution of the AAMC. Reaction buffer containing the BSA (25 μL/well), the diluted test compounds at different concentrations (5 μL/well containing 1% DMSO) and the membrane preparation (10 μL/well, i.e. 200 μg of tissue per test) are successively added to the wells. After preincubation for 20 minutes of the compounds with the enzyme at 25° C., the reaction is started by adding 10 μL of substrate per well (AAMC, final concentration of 10 μM). After incubation for 40 minutes at 37° C., the aminomethyl coumarin (AMC) produced is measured by fluorescent counting (Envision plate reader).

IC50 [1] [nM]	melting point [°C]	IC50 [3] [nM]	SMILES	reduction of the number of stretches induced with PBQ [2] [%]
19			NC(=O)c1cc(COC(=O)N2C[C@H]3C[C@H](Oc4ccc(Cl)cc4)C[C@H]3C2)on1 [Compound 12, (3-carbamoylisoxazol-5-yl)methyl (3aR,5s,6aS)-5-(4-chlorophenoxy)hexahydrocyclopenta[c]pyrrole-2(1H)-carboxylate]	
34	149 to 151		CCOc1ccc2ccc(OC3CC4CN(C(=O)OCc5nc(C(=O)NC)cs5)CC4C3)cc2c1 [Compound 23, [4-(methylcarbamoyl)thiazol-2-yl]methyl (3aR,5s,6aS)-5-[(7-ethoxy-2-naphthyl)oxy]hexahydrocyclopenta[c]pyrrole-2(1H)-carboxylate]	
12	131 to 133		CNC(=O)c1cc(COC(=O)N2C[C@H]3C[C@H](Oc4ccc(Cl)c5ccccc45)C[C@H]3C2)on1 [Compound 28, [3-(methylcarbamoyl)isoxazol-5-yl]methyl (3aR,5s,6aS)-5-[(4-chloro-1-naphthyl)oxy]hexahydrocyclopenta[c]pyrrole-2(1H)-carboxylate]	
		7.4	CN(C)C(=O)c1cc(COC(=O)N2C[C@H]3C[C@H](Oc4ccc(F)cc4)C[C@H]3C2)on1 [Compound 44, (3-dimethylcarbamoylisoxazol-5-yl)methyl (3aR,5s,6aS)-5-(4-fluorophenoxy)hexahydrocyclopenta[c]pyrrole-2(1H)-carboxylate]	
	154 to 156	0.47	CNC(=O)c1cc(COC(=O)N2C[C@H]3C[C@H](Oc4ccc(-c5ccc(F)cc5)cc4)C[C@H]3C2)on1 [Compound 45, (3-methylcarbamoylisoxazol-5-yl)methyl (3aR,5s,6aS)-5-[(4′-fluorobiphenyl-4-yl)oxy]hexahydrocyclopenta[c]-pyrrole-2(1H)-carboxylate]	

Continued, molecule first:

SMILES	IC50 [1] [nM]	melting point [°C]	IC50 [3] [nM]	reduction of the number of stretches induced with PBQ [2] [%]
CCOc1ccc2ccc(O[C@H]3C[C@@H]4CN(C(=O)OCc5nccs5)C[C@@H]4C3)cc2c1 [Compound 3, thiazol-2-ylmethyl (3aR,5s,6aS)-5-[(7-ethoxy-2-naphthyl)oxy]hexahydrocyclopenta[c]pyrrole-2(1H)-carboxylate]	3.5			
O=C(OCc1csnn1)N1C[C@H]2C[C@H](Oc3ccc(Cl)cc3)C[C@H]2C1 [Compound 7, 1,2,3-thiadiazol-4-ylmethyl (3aR,5s,6aS)-5-(4-chlorophenoxy)hexahydrocyclopenta[c]pyrrole-2(1H)-carboxylate]	89	122 to 124		
CCOc1ccc2ccc(O[C@H]3C[C@@H]4CN(C(=O)OCc5cc(C(N)=O)no5)C[C@@H]4C3)cc2c1 [Compound 24, (3-carbamoylisoxazol-5-yl)methyl (3aR,5s,6aS)-5-[(7-ethoxy-2-naphthyl)oxy]hexahydrocyclopenta[c]pyrrole-2(1H)-carboxylate]				50
NC(=O)c1cc(COC(=O)N2C[C@H]3C[C@H](Oc4ccc(Cl)c(F)c4)C[C@H]3C2)on1 [Compound 34, (3-carbamoylisoxazol-5-yl)methyl (3aR,5s,6aS)-5-(4-chloro-3-fluorophenoxy)hexahydrocyclopenta[c]pyrrole-2(1H)-carboxylate]	3.2	100 to 102		
CNC(=O)c1cc(COC(=O)N2C[C@H]3C[C@H](Oc4ccc(Cl)c(F)c4)C[C@H]3C2)on1 [Compound 35, [3-(methylcarbamoyl)isoxazol-5-yl]methyl (3aR,5s,6aS)-5-(4-chloro-3-fluorophenoxy)hexahydrocyclopenta[c]pyrrole-2(1H)-carboxylate]				50
